The values that follow come from patent US12402628B2, “Compositions, kits, methods and uses for cleaning, disinfecting, sterilizing and/or treating” (Collidion, Inc., priority 2018, dated 2025).

This experiment deals with Staphylococcus epidermidis (ATCC 12228). Briefly: Bacterial viability assay with Bovine Serum, HOCl and salt controls (Table 30). The class given is cell-based. Particulars: 200 ppm Hypochlorous acid, 5 minutes. On the procedure:
Stock cultures of pathogenic bacteria Staphylococcus epidermidis (ATCC 12228) were prepared as described in Example 3. The final numeration count uses aliquot volume, count obtained on TSA plate and the total original volume of culture. The remaining amount in the tube was used to inoculate actual test samples. Samples from each composition tested were set up with Bovine Serum as follows: 1) Assays with serum contained 100 μL of pathogenic bacteria suspension, 500 μL of Bovine Serum and 9400 μL of one of the composition formulations shown in Table 29; 2) HOCl control assays contained 100 μL of pathogen bacteria suspension, 500 μL of Bovine Serum and 9400 μL of 350 ppm, 200 ppm, 100 ppm or 50 ppm Hypochlorous acid; 3) Salt control assays contained 100 μL of pathogen bacteria suspension, 500 μL of Bovine Serum and 9400 μL of 140 ppm, 80 ppm, 40 ppm or 20 ppm each of Copper (II) chloride, Iron (II) chloride and zinc chloride or each of Copper (II) chloride, Iron (III) chloride and zinc chloride; and 4) Negative control assays contained 100 μL of pathogen bacteria suspension, 500 μL of Bovine Serum and 9400 μL of sterile water. Samples were exposed for five (5) minutes at which point a neutralizing agent was used to inhibit the activity of the microbial agent being tested. […] The presence of viable bacteria was then measured by counting the number of colonies observed on the agar medium.

Where “and” joins values, the source holds several entries; their conditions need not be identical. Equal entries are not always repeated.

Regarding Hypochlorous acid [HOCl Control], the “Log Growth Reduction, HOCl Control” value was 3.03 log and 3.00 log.
